Data: patent publication US8450067B2, “Method for obtaining anti-idiotype antibodies” (Omrix Biopharmaceuticals Inc., priority 2002, dated 2013)
Read-outs that look alike come from different tables or passages of the source.

Legend:
[1] = system: anti-anti-dsDNA (anti-Id) isolated from IVIG; experiment: Direct binding of anti-Id to the synthetic peptides by ELISA; set-up: species or system human
Experimental: (§1) The binding of anti-Id to the peptides was tested by ELISA.
(§2) ELISA plates were coated by 10 ug/ml of peptides in PBS overnight at 4° C. The plates were blocked with 3% BSA for 1hr at 37° C. Anti-Id was added at different concentrations. IgG purified from one donor was used as negative control.
(§3) The binding of the immunoglobulin was probed with goat anti-human IgG conjugated to alkaline phosphatase and the appropriate substrate. Between each step, extensive washings were performed with 0.05% PBS-Tween.
(§4) The same protocol was used as above, but the peptides used in this study were taken from the literature except for peptide number 1 which is the first peptide in the previous experiment.

[2] = system: control IgG (IgG purified from one donor); experiment: Direct binding ELISA, negative control immunoglobulin; set-up: species or system human
Experimental: as §1, §2, §3, §4

[3] = system: immunoglobulin eluted from a peptide column bearing the peptide 706; experiment: ELISA of peptide column eluate with biotinylated peptides (706 column); format: binding, human; settings: FIG. 3; biotinylated peptide 1 μg/ml
Experimental: (§5) To measure the binding efficacy of peptide column eluates (706 and 707) the following ELISA was performed:
(§6) Microtiter plates (Costar, USA) were coated overnight at 2-8° C. with 10 μg/ml NeutrAvidin (Pierce, USA) suspended in 0.1M, pH 8.8, of carbonate-bicarbonate buffer (Sigma USA). The coating solution was removed, washed three times with washing buffer (1×PBS) and 200 μl of blocking solution (freshly prepared 1% I Block, Tropix, USA) per well was added and incubated for 1 hour at 37° C. Coated and blocked plates can be stored at −20° C. for a month before use.
(§7) Tested samples diluted in the blocking solution were mixed in a separate tube with 1 μg/ml (final concentration) of the appropriate biotinylated peptide and the mixture was incubated for 1 hour at 37° C. 100 μl from each reaction tube was then transferred to the blocked microtiter plate and incubated at 37° C. for ½ hour. A 100 μl of 1:5000 Alkaline Phosphatase conjugate goat anti human IgG (Heavy and light chain from Jackson, USA) diluted in the blocking buffer was applied into the microtiter well and incubated for 1 hour. […] The measurement was done photometrically at 405 nm.

[4] = system: immunoglobulin elution peak from a peptide column bound with peptide 707; experiment: ELISA of peptide column eluate with biotinylated peptides (707 column); format: binding, human; settings: FIG. 4
Experimental: as §5, §6, §7

mice = settings: responder mice (BALB/c, SJL), cited from earlier work
[5] = Table 2, anti-Id 10 μg/ml, plates coated with 10 ug/ml peptide

| Substance | binding of anti-Id to peptide (OD at 405 nm) ([1]; Table 2, anti-Id 1 μg/ml) | binding of anti-Id to peptide (OD at 405 nm) ([1]; Table 2, anti-Id 2.5 μg/ml) | binding of anti-Id to peptide (OD at 405 nm) ([1]; Table 2, anti-Id 5 μg/ml) | binding of anti-Id to peptide (OD at 405 nm) [1, 5] | binding of control IgG to peptide (OD at 405 nm) ([2]; Table 2, control IgG 1 μg/ml) | binding of control IgG to peptide (OD at 405 nm) ([2]; Table 2, control IgG 5 μg/ml) | other results |
| --- | --- | --- | --- | --- | --- | --- | --- |
| DWLYSRS [Pep 13] | 0.112 | 0.099 | 0.387 | 0.748 | 0.069 | 0.078 | – |
| GIWELSKEPSQKVWQMYYGT [Pep R706, reverse order of CDR1, used as a control] | – | – | – | – | – | – | binding of 706 column eluate to biotinylated peptide [3]: not; binding of 707 column eluate to biotinylated peptide ([4]; biotinylated peptide 1 μg/ml): reacted even more strongly |
| KHETTET [Pep 1] | 0.046 | 0.269 | 1.329 | 1.815 | 0.013 | 0.016 | binding of anti-Id to peptide (OD at 405 nm) ([1]; Table 3 (literature peptides), anti-Id 10 μg/ml): 1.21; binding of anti-Id to peptide (OD at 405 nm) ([1]; Table 3, anti-Id 1 μg/ml): 0.041; binding of anti-Id to peptide (OD at 405 nm) ([1]; Table 3, anti-Id 2.5 μg/ml): 0.074; binding of anti-Id to peptide (OD at 405 nm) ([1]; Table 3, anti-Id 5 μg/ml): 0.216; binding of control IgG to peptide (OD at 405 nm) ([2]; Table 3, Control IgG 1 μg/ml): 0.044; binding of control IgG to peptide (OD at 405 nm) ([2]; Table 3, Control IgG 5 μg/ml): 0.043 |
| KYKRKYP [Pep 15] | 0.049 | 0.067 | 0.117 | 0.287 | 0.037 | 0.068 | – |
| PLPDWRV [Pep 12] | 0.042 | 0.072 | 0.273 | 1.356 | 0.043 | 0.045 | – |
| PPQKHLL [Pep 14] | 0.113 | 0.234 | 0.611 | 0.987 | 0.079 | 0.083 | – |
| YYCARFLWEPYAMDYWGQGS [Pep 707, 16.6 monoclonal antibody CDR3-based peptide] | – | – | – | – | – | – | specificity of the elution peak from the column bound with the peptide [4]: reacted in a non-specific manner; induction of SLE-like disease in mice (mice): can cause SLE symptoms; induction of SLE-like disease in mice (mice; listed as pCDR3): induced a mild SLE-like disease |
